Measured values as given in paper PMC12635197, “Discovery of first-in-class inhibitors of the TRF1:TIN2 protein:protein interaction by fragment screening” (Scientific Reports, 2025).

How the values were obtained:
[1] = target: T1, shelterin complex (Homo sapiens, UniProt P54274); assay: SDS-PAGE/Western blot of crosslinked shelterin after compound incubation; type: biochemical
T1 construct: evicted full-length TRF1 from the shelterin complex; made in house; host or cells: Spodoptera frugiperda (Sf9) insect cells, MultiBac baculovirus
T1 sequence (P54274 1-439): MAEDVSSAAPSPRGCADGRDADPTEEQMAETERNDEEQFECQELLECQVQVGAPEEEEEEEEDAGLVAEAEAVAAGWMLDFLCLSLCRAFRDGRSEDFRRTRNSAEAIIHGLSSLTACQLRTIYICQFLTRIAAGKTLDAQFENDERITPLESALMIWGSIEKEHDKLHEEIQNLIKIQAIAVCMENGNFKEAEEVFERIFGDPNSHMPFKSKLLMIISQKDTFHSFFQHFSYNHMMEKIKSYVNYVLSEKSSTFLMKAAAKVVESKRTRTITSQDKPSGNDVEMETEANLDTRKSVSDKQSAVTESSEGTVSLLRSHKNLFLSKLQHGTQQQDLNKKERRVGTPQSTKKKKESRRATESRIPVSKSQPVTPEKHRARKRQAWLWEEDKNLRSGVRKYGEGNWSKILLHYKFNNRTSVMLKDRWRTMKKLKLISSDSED
Excerpt: We developed a mass-photometry based assay to evaluate the ability of compound 40 to disrupt the TRF1TRFH:TIN2TBM interaction and subsequently evict TRF1 from the full shelterin complex. We expressed recombinant shelterin in insect cells (see Materials and Methods) and purified it via affinity and size exclusion chromatography (SEC). Given the compositional heterogeneity of shelterin, also observed by Zinder et al. 2022[42], we enriched a complex of approximately 700 kDa by serial SEC. The resulting complex was incubated with increasing concentrations of compound 40, and the resulting mass distribution was analysed by mass photometry. […] To confirm whether the evicted entity corresponds to TRF1, we analysed the full shelterin complex by SDS-PAGE, upon co-incubation with increasing amounts of compound 40 or control compound 60 and subsequent mild crosslinking, analogous to the mass photometry experiment. […]
For SDS-PAGE and Western blotting studies, SEC-purified shelterin was diluted to 0.9 µM and incubated with increasing concentrations of compound 40 or 60 (negative control) in the same range as for the MP experiment (from 0 to 300 µM). […] The samples were then analysed by SDS-PAGE, followed by either Coomassie staining or Western blotting. […] Normalised signal intensities from three independent experiments were analysed and plotted using GraphPad Prism (v10.5.0).

[2] = target: T2, TRF1TRFH (Homo sapiens, UniProt P54274); assay: LO-NMR R2KD assay; type: binding; settings: global KD shared across 1H NMR peaks, single experiment, 95% CI in parentheses; 2 µM TRF1TRFH
T2 construct: encoding residues 47–268, UniProt identifier P54274-1; His6-MBP (TEV-cleavable) (N, cleaved yes); made in house; host or cells: E. coli BL21-CodonPlus(DE3)-RIL
T2 sequence (P54274 47-268): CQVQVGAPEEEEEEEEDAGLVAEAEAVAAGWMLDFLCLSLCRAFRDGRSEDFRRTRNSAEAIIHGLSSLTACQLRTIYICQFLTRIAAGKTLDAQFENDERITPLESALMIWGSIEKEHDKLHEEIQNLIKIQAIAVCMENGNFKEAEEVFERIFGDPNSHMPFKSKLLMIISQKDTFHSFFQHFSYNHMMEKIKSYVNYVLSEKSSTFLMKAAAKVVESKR
Description: Recent work by Liu and colleagues introduced a novel LO-NMR method that can be used to quantitatively determine the dissociation constant (KD) of a ligand for a protein from measured R2 values of ligand nuclei at a range of ligand concentrations.
The R2KD assay was carried out as described by Liu et al.[40]. A Bruker SamplePro liquid handler was used to prepare 10 samples: 8 samples containing an increasing ligand concentration from 50 to 500 µM whilst maintaining a constant TRF1TRFH concentration (2 µM final); and two samples containing ligand only at 200 µM and 400 µM. All ten samples were prepared from stock solutions of ligand, DMSO, protein and buffer alone using the Bruker SamplePro liquid handler prior to transfer to 3-mm NMR tubes.
NMR data were collected at 298 K on a Bruker Avance Neo 600-MHz spectrometer using the Bruker Topspin 4.0 software. T2 relaxation experiments were performed using the standard Bruker CPMG pulse program with Excitation Sculpting incorporated to suppress water signal. The spin-echo period (delay-180°-delay) was set to 1 ms (d20 = 500 µs), and the relaxation delay (d1) was set to 10 s. The sudo-2D experiment contained nine slices with the spin echo period repeated at the following times: 4, 20, 100, 200, 300, 500, 700, 1000, and 2000 ms. T2 relaxation data were processed using the MestReNova 14.1 data analysis module to obtain integrals of individual[1]H-NMR signals, which were used to calculate R2 with the equation I = I0e^(−tR2). GraphPad Prism 9.0.0 was used to fit R2 values of individual compound peaks to obtain an overall (shared) KD value from all peaks of the compound.

In the case of COc1cc(COc2ccc(S(=O)(=O)[O-])c3ccccc23)cc(OC)c1.[Na+] [Compound 40], the “release of TRF1 (species migrating between 100 and 150 kDa)” value ([1]; 0.9 µM shelterin, 0-300 µM compound, 0.075% glutaraldehyde) is reported as “dose-dependently liberated”, the “release of TRF2 and TIN2 from shelterin” value ([1]; Western blot probing for TRF2 and TIN2) is reported as “TRF2 was not released, nor was TIN2” and the Kd [2] is reported as 29 µM.
